{"source": "patent US10076519B2", "about": "(CYTOKINETICS, INC., priority 2010, dated 2018)", "test_system": "rabbit skeletal myofibrils (fast skeletal myofibrils)", "assay": "Activation of fast skeletal myofibrils (PUMA assay, PK/LDH-coupled ATPase at pCa25)", "type": "biochemical", "procedure,_shortened": "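Detergent-washed rabbit psoas myofibrils (~90% fast fibres, calcium-regulated) assayed at calcium giving 25% of maximal ATPase rate (pCa25). ADP turnover coupled via pyruvate kinase/lactate dehydrogenase to NADH oxidation, read at 340 nm. Buffer 12 mM PIPES, 2 mM MgCl2, 1 mM DTT, pH 6.8; AC1.4 values derived.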", "key": {"[1]": {"conditions": "median AC1.4 class, procedure of Example 39"}, "[2]": {"conditions": "AC1.4 determined according to the procedure of Example 39, reported as class symbols"}}, "data": [{"smiles": "NC(=O)c1coc(NC(=O)c2ccc(NCC3(c4ncccc4F)CCC3)nn2)n1", "note": "[2-{[6-({[(3-fluoro-2-pyridyl)cyclobutyl]methyl}amino)pyr-idazin-3-yl]carbonylamino}-1,3-oxazole-4-carboxamide]", "values": [{"measurement": "Mean AC1.4", "setting": "median AC1.4 reported as class, procedure of Example 39", "value": "D (D=>20 uM)"}]}, {"smiles": "O=C(NCc1cnc(-c2ccc(NCC3(c4ncccc4F)CCC3)nn2)s1)c1cn[nH]n1", "note": "[2H-1,2,3-triazol-4-yl-N-({2-[6-({[(3-fluoro(2-pyridyl))cyclobutyl]methyl}ami-no)pyridazin-3-yl](1,3-thiazol-5-yl)}methyl)carboxamide]", "values": [{"measurement": "Mean AC1.4", "setting": "[1]", "value": "A (A=<1 uM)"}]}, {"smiles": "CS(=O)(=O)N1CC(CNc2ccc(-c3ccc4[nH]ncc4c3)nn2)(c2ncccc2F)C1", "note": "[3-(3-fluoro(2-pyridyl))-3-{[(6-(1H-indazol-5-yl)pyridazin-3-yl)amino]methyl}-1-(methylsulfonyl)azetidine]", "values": [{"measurement": "Mean AC1.4", "setting": "[2]", "value": "D (D=>20 uM)"}]}, {"smiles": "CC(C)(CNc1nnc(-c2cccc(C(N)=O)c2)cc1C#N)c1ccc(F)cc1", "note": "[3-(5-cyano-6-{[2-(4-fluorophenyl)-2-methylpropyl]amino}pyridazin-3-yl)benzamide]", "values": [{"measurement": "Mean AC1.4", "setting": "[2]", "value": "C (C=10-20 uM)"}]}, {"smiles": "CC(C)(Nc1ccc(-c2cc(C(N)=O)ccc2F)nn1)c1ncccc1Cl", "note": "[3-(6-{[1-(3-chloro(2-pyridyl))-isopropyl]amino}pyridazin-3-yl)-4-fluorobenzamide]", "values": [{"measurement": "Mean AC1.4", "setting": "[1]", "value": "B (B=1-10 uM)"}]}, {"smiles": "CC(C)(Nc1ccc(-c2cccc(C(N)=O)c2)nn1)c1cccc(F)c1", "note": "[3-(6-{[1-(3-fluorophenyl)-isopropyl]amino}pyridazin-3-yl)benzamide]", "values": [{"measurement": "Mean AC1.4", "setting": "[1]", "value": "B (B=1-10 uM)"}]}, {"smiles": "CC(C)(Nc1ccc(-c2cccc(C(N)=O)c2)nn1)c1ccc(F)cc1", "note": "[3-(6-{[1-(4-fluorophenyl)-isopropyl]amino}pyridazin-3-yl)benzamide]", "values": [{"measurement": "Mean AC1.4", "setting": "[1]", "value": "B (B=1-10 uM)"}]}, {"smiles": "CC(C)(CNc1ccc(-c2cccc(C(N)=O)c2)nn1)c1ccc(F)cc1F", "note": "[3-(6-{[2-(2,4-difluorophenyl)-2-methylpropyl]amino}pyridazin-3-yl)benzamide]", "values": [{"measurement": "Mean AC1.4", "setting": "[2]", "value": "B (B=1-10 uM)"}]}, {"smiles": "CC(C)(CNc1ccc(-c2cccc(C(N)=O)c2)nn1)c1ccccc1Cl", "note": "[3-(6-{[2-(2-chlorophenyl)-2-methylpropyl]amino}pyridazin-3-yl)benzamide]", "values": [{"measurement": "Mean AC1.4", "setting": "[2]", "value": "A (A=<1 uM)"}]}, {"smiles": "CCC(CNc1ccc(-c2cccc(C(N)=O)c2)nn1)c1ccccc1F", "note": "(stereo not drawn) [3-(6-{[2-(2-fluoro-phenyl)butyl]amino}pyridazin-3-yl)benzamide]", "values": [{"measurement": "Mean AC1.4", "setting": "[2]", "value": "B (B=1-10 uM)"}]}, {"smiles": "CC(C)(CNc1ccc(-c2cccc(C(N)=O)c2)nn1)c1ccccc1F", "note": "[3-(6-{[2-(2-fluorophenyl)-2-methylpropyl]amino}pyridazin-3-yl)benzamide]", "values": [{"measurement": "Mean AC1.4", "setting": "[2]", "value": "A (A=<1 uM)"}]}, {"smiles": "COCCC(CNc1ccc(-c2cccc(C(N)=O)c2)nn1)c1ccccc1F", "note": "(stereo not drawn) [3-(6-{[2-(2-fluorophenyl)-4-methoxybutyl]amino}pyridazin-3-yl)benzamide]", "values": [{"measurement": "Mean AC1.4", "setting": "[2]", "value": "D (D=>20 uM)"}]}, {"smiles": "CC(C)(CNc1ccc(-c2cccc(C(N)=O)c2)nn1)c1ncc(F)cc1F", "note": "[3-(6-{[2-(3,5-difluoro(2-pyridyl))-2-methylpropyl]amino}pyridazin-3-yl)benzamide]", "values": [{"measurement": "Mean AC1.4", "setting": "[2]", "value": "B (B=1-10 uM)"}]}, {"smiles": "CC(C)(CNc1ccc(-c2cc(C(N)=O)ccc2F)nn1)c1ncccc1Cl", "note": "[3-(6-{[2-(3-chloro(2-pyridyl))-2-methylpropyl]amino}pyridazin-3-yl)-4-fluorobenzamide]", "values": [{"measurement": "Mean AC1.4", "setting": "[1]", "value": "A (A=<1 uM)"}]}, {"smiles": "CC(C)(CNc1ccc(-c2cc(C#N)ccc2F)nn1)c1ncccc1Cl", "note": "[3-(6-{[2-(3-chloro(2-pyridyl))-2-methylpropyl]amino}pyridazin-3-yl)-4-fluorobenzenecarbonitrile]", "values": [{"measurement": "Mean AC1.4", "setting": "[1]", "value": "B (B=1-10 uM)"}]}, {"smiles": "CC(C)(CNc1ccc(-c2cccc(C(N)=O)c2)nn1)c1ncccc1Cl", "note": "[3-(6-{[2-(3-chloro(2-pyridyl))-2-methylpropyl]amino}pyridazin-3-yl)benzamide]", "values": [{"measurement": "Mean AC1.4", "setting": "[1]", "value": "A (A=<1 uM)"}]}, {"smiles": "CC(C)(CNc1ccc(-c2cccc(C#N)c2)nn1)c1ncccc1Cl", "note": "[3-(6-{[2-(3-chloro(2-pyridyl))-2-methylpropyl]amino}pyridazin-3-yl)benzenecarbonitrile]", "values": [{"measurement": "Mean AC1.4", "setting": "[1]", "value": "B (B=1-10 uM)"}]}, {"smiles": "CC(C)(CNc1ccc(-c2cccc(C(N)=O)c2)nn1)c1ncccc1F", "note": "[3-(6-{[2-(3-fluoro(2-pyridyl))-2-methylpropyl]amino}pyridazin-3-yl)benzamide]", "values": [{"measurement": "Mean AC1.4", "setting": "[2]", "value": "B (B=1-10 uM)"}]}, {"smiles": "CC(C)(CNc1ccc(-c2cccc(C(N)=O)c2)nn1)c1cccc(F)c1", "note": "[3-(6-{[2-(3-fluorophenyl)-2-methylpropyl]amino}pyridazin-3-yl)benzamide]", "values": [{"measurement": "Mean AC1.4", "setting": "[2]", "value": "A (A=<1 uM)"}]}, {"smiles": "CC(C)(CNc1ccc(-c2cccc(C(N)=O)c2)nn1)c1ccc(Cl)cc1", "note": "[3-(6-{[2-(4-chlorophenyl)-2-methylpropyl]amino}pyridazin-3-yl)benzamide]", "values": [{"measurement": "Mean AC1.4", "setting": "[2]", "value": "B (B=1-10 uM)"}]}, {"smiles": "Cc1cc(NCC(C)(C)c2ccc(F)cc2)nnc1-c1cccc(C(N)=O)c1", "note": "[3-(6-{[2-(4-fluorophenyl)-2-methylpropyl]amino}-4-methylpyridazin-3-yl)benzamide]", "values": [{"measurement": "Mean AC1.4", "setting": "[2]", "value": "B (B=1-10 uM)"}]}, {"smiles": "Cc1cc(NCC(C)(C)c2ccc(F)cc2)nnc1-c1cccc(C#N)c1", "note": "[3-(6-{[2-(4-fluorophenyl)-2-methylpropyl]amino}-4-methylpyridazin-3-yl)benzenecarbonitrile]", "values": [{"measurement": "Mean AC1.4", "setting": "[2]", "value": "B (B=1-10 uM)"}]}, {"smiles": "Cc1cc(-c2cccc(C(N)=O)c2)nnc1NCC(C)(C)c1ccc(F)cc1", "note": "[3-(6-{[2-(4-fluorophenyl)-2-methylpropyl]amino}-5-methylpyridazin-3-yl)benzamide]", "values": [{"measurement": "Mean AC1.4", "setting": "[2]", "value": "B (B=1-10 uM)"}]}, {"smiles": "Cc1cc(-c2cccc(C#N)c2)nnc1NCC(C)(C)c1ccc(F)cc1", "note": "[3-(6-{[2-(4-fluorophenyl)-2-methylpropyl]amino}-5-methylpyridazin-3-yl)benzenecarbonitrile]", "values": [{"measurement": "Mean AC1.4", "setting": "[2]", "value": "C (C=10-20 uM)"}]}, {"smiles": "CC(C)(CNc1ccc(-c2noc(C(N)=O)n2)nn1)c1ccc(F)cc1", "note": "[3-(6-{[2-(4-fluorophenyl)-2-methylpropyl]amino}pyridazin-3-yl)-1,2,4-oxadiazole-5-carboxamide]", "values": [{"measurement": "Mean AC1.4", "setting": "[2]", "value": "C (C=10-20 uM)"}]}, {"smiles": "CC(C)(CNc1ccc(-c2cccc(C(N)=O)c2)nn1)c1ccc(F)cc1", "note": "[3-(6-{[2-(4-fluorophenyl)-2-methylpropyl]amino}pyridazin-3-yl)benzamide]", "values": [{"measurement": "Mean AC1.4", "setting": "[2]", "value": "A (A=<1 uM)"}]}, {"smiles": "CC(C)(CNc1ccc(-c2cccc(C#N)c2)nn1)c1ccc(F)cc1", "note": "[3-(6-{[2-(4-fluorophenyl)-2-methylpropyl]amino}pyridazin-3-yl)benzenecarbonitrile]", "values": [{"measurement": "Mean AC1.4", "setting": "[2]", "value": "B (B=1-10 uM)"}]}, {"smiles": "CC(C)(CNc1ccc(-c2cccc(C(=O)N3CCOCC3)c2)nn1)c1ccc(F)cc1", "note": "[3-(6-{[2-(4-fluorophenyl)-2-methylpropyl]amino}pyridazin-3-yl)phenyl morpholin-4-yl ketone]", "values": [{"measurement": "Mean AC1.4", "setting": "[2]", "value": "B (B=1-10 uM)"}]}, {"smiles": "CC(C)(CNc1ccc(-c2cccc(C(=O)c3ccccc3)c2)nn1)c1ccc(F)cc1", "note": "[3-(6-{[2-(4-fluorophenyl)-2-methylpropyl]amino}pyridazin-3-yl)phenyl phenyl ketone]", "values": [{"measurement": "Mean AC1.4", "setting": "[2]", "value": "D (D=>20 uM)"}]}, {"smiles": "CC(C)(CNc1ccc(-c2cccc(C(=O)N3CCNCC3)c2)nn1)c1ccc(F)cc1", "note": "[3-(6-{[2-(4-fluorophenyl)-2-methylpropyl]amino}pyridazin-3-yl)phenyl piperazinyl ketone]", "values": [{"measurement": "Mean AC1.4", "setting": "[2]", "value": "B (B=1-10 uM)"}]}, {"smiles": "CC(C)(CNc1ccc(-c2cccc(C(=O)N3CCCCC3)c2)nn1)c1ccc(F)cc1", "note": "[3-(6-{[2-(4-fluorophenyl)-2-methylpropyl]amino}pyridazin-3-yl)phenyl piperidyl ketone]", "values": [{"measurement": "Mean AC1.4", "setting": "[2]", "value": "B (B=1-10 uM)"}]}, {"smiles": "CC(C)(CNc1ccc(-c2cccnc2O)nn1)c1ccc(F)cc1", "note": "[3-(6-{[2-(4-fluorophenyl)-2-methylpropyl]amino}pyridazin-3-yl)pyridin-2-ol]", "values": [{"measurement": "Mean AC1.4", "setting": "[2]", "value": "B (B=1-10 uM)"}]}, {"smiles": "CC(C)(CNc1ccc(-c2cccc(C(N)=O)c2)nn1)c1ccc(F)cn1", "note": "[3-(6-{[2-(5-fluoro(2-pyridyl))-2-methylpropyl]amino}pyridazin-3-yl)benzamide]", "values": [{"measurement": "Mean AC1.4", "setting": "[2]", "value": "C (C=10-20 uM)"}]}, {"smiles": "N#Cc1cccc(-c2ccc(NCC3(c4ccccn4)CCC3)nn2)c1", "note": "[3-(6-{[(2-pyridylcyclobutyl)methyl]ami-no}pyridazin-3-yl)benzenecarbonitrile]", "values": [{"measurement": "Mean AC1.4", "setting": "[1]", "value": "B (B=1-10 uM)"}]}, {"smiles": "NC(=O)c1cccc(-c2ccc(NCC3(C(N)=O)CCC3)nn2)c1", "note": "[3-(6-{[(carbamoylcyclo-butyl)methyl]amino}pyridazin-3-yl)benzamide]", "values": [{"measurement": "Mean AC1.4", "setting": "[2]", "value": "D (D=>20 uM)"}]}, {"smiles": "CN(CC1(c2ccccn2)CCC1)c1ccc(-c2cccc(C(N)=O)c2)nn1", "note": "[3-(6-{methyl[(2-pyridylcyclobutyl)methyl]ami-no}pyridazin-3-yl)benzamide]", "values": [{"measurement": "Mean AC1.4", "setting": "[1]", "value": "D (D=>20 uM)"}]}, {"smiles": "CC1(C)CN(c2ccc(-c3cccc(C(N)=O)c3)nn2)c2ccccc21", "note": "[3-[6-(3,3-dimethylindolinyl)pyridazin-3-yl]benzamide]", "values": [{"measurement": "Mean AC1.4", "setting": "[2]", "value": "D (D=>20 uM)"}]}, {"smiles": "NC(=O)c1cccc(-c2ccc(NC3Cc4ccccc4C3)nn2)c1", "note": "[3-[6-(indan-2-ylamino)pyridazin-3-yl]benzamide]", "values": [{"measurement": "Mean AC1.4", "setting": "[2]", "value": "D (D=>20 uM)"}]}, {"smiles": "NC(=O)c1cccc(-c2ccc(NC(=O)c3ccccc3)nn2)c1", "note": "[3-[6-(phenylcarbonylamino)pyridazin-3-yl]benzamide]", "values": [{"measurement": "Mean AC1.4", "setting": "[1]", "value": "D (D=>20 uM)"}]}, {"smiles": "CC(C)(Nc1ccc(-c2cc(C(N)=O)ccc2F)nn1)c1cccc(OC(F)F)n1", "note": "[3-[6-({1-[6-(difluoromethoxy)(2-pyridyl)]-isopropyl}amino)pyridazin-3-yl]-4-fluorobenzamide]", "values": [{"measurement": "Mean AC1.4", "setting": "[1]", "value": "A (A=<1 uM)"}]}, {"smiles": "CC(C)(Nc1ccc(-c2cccc(C(N)=O)c2)nn1)c1cccc(OC(F)F)n1", "note": "[3-[6-({1-[6-(difluoromethoxy)(2-pyridyl)]-isopropyl}amino)pyridazin-3-yl]benzamide]", "values": [{"measurement": "Mean AC1.4", "setting": "[1]", "value": "B (B=1-10 uM)"}]}, {"smiles": "CC(=O)N1CC(CNc2ccc(-c3cccc(C(N)=O)c3)nn2)(c2ncccc2F)C1", "note": "[3-[6-({[1-acetyl-3-(3-fluoro(2-pyridyl))azetidin-3-yl]methyl}amino)pyridazin-3-yl]benzamide]", "values": [{"measurement": "Mean AC1.4", "setting": "[2]", "value": "D (D=>20 uM)"}]}]}
